Assay results reported in article PMC9879403, “Oncolytic strategy using new bifunctional HDACs/BRD4 inhibitors against virus-associated lymphomas” (PLOS Pathogens, 2023).
Like-named read-outs stand apart in the source and are kept apart here.

Experiments:
[1] = system: BCBL-1; assay: WST-1 cytotoxicity assay, BCBL-1 (KSHV+ PEL); type: cell-based; details: BCBL1, 72 h
Text: (§1) Fig 2 Identification of newly synthesized dual inhibitors with anti-PEL activities. (A) The binding mode of (+)-JQ1 with BRD4^BD1 (PDB: 3MXF). BRD4^BD1 is shown as hot pink cartoon with gray surface. Asn140 in BRD4^BD1 is shown as sticks and colored in following pattern: atom C hot pink, atom N dark blue, and atom O yellow. (+)-JQ1 is shown as sticks and colored in following patten: atom C hot pink, atom N dark blue, atom O yellow, atom S golden, and atom Cl green. The solvent exposed region (SEG) of (+)-JQ1 are indicated with white arrow. (B) The binding modes of SAHA and entinostat with HDAC2 (PDB: 3MAX). HDAC2 is shown as blue cartoon with gray surface. Asp181 and His183 in HDAC2 are shown as sticks and colored in following pattern: atom C blue, atom N dark blue, and atom O yellow. The catalytic zinc ion in the active site of HDAC2 is shown as black sphere. SAHA is shown as sticks and colored in following pattern: atom C green, atom N dark blue, and atom O yellow. Entinostat is shown as sticks and colored in following pattern: atom C hot pink, atom N dark blue, and atom O yellow. The SEG of SAHA or entinostat is indicated with white arrow. Hydrogen bonds (H-bonds) are presented by red dash lines. (C) The HDACs/BRD4 dual inhibitors 002-011 were designed by fusing the key pharmacophores of (+)-JQ1 (pink) and HDAC inhibitors (blue), SAHA or entinostat, via various chemical linkers (green). (D) Anti-PEL activities of the new compounds. Five KSHV positive and two KSHV negative lymphoma cell lines were treated with indicated concentrations of these compounds for 72 h. Then the cytotoxicity was determined using the WST-1 assay. (+)-JQ1, SAHA and entinostat were used for the comparisons as single inhibitors. The CC50 for each compound was calculated using GraphPad Prism 5.0 software. Error bars represent S.D. for 3 independent experiments.
(§2) Fig 4 Identification of anti-PEL activities for compound 009 stereoisomers. (A) The chemical structures of anti-HDACs/BRD4 bifunctional molecules 009P1 and 009P2, as well as anti-HDACs or anti-BRD4 mono-functional molecules 009N1, 009N2, 009N3, and 009N4. (B-C) Four KSHV+ PEL cell lines were treated with indicated concentrations of 009P1, 009P2 or 009N1-N4 for 72 h, then the cytotoxicity was determined using the WST-1 assay. (D-I) BCBL-1 cells were treated with these compounds at the respective 2× CC50 for 24 h, then cell cycle (D-F) and apoptosis (G-I) were measured by flow cytometry analysis. Error bars represent S.D. for 3 independent experiments, ** = p<0.01 (vs vehicle control).
(§3) The cell viability following treatment with compounds was assessed by the WST-1 assay (Roche, Indianapolis, Indiana, USA) according to the manufacturer’s protocol as described previously. The absorbance signal was measured using a microplate reader (Biotek Synergy 2). The 50% cytotoxic concentration (CC50) for each compound was calculated from these dose-response curves using the software GraphPad Prism v5.0. Data were normalized as the fold change compared to the DMSO control.

[2] = system: BC-1; assay: WST-1 cytotoxicity assay, BC-1 (KSHV+ PEL); type: cell-based; details: Homo sapiens, BC1, 72 h
Text: as §1, §2, §3

[3] = system: BCP-1; assay: WST-1 cytotoxicity assay, BCP-1 (KSHV+ PEL); type: cell-based; details: BCP-1, 72 h
Text: as §1, §2, §3

[4] = system: JSC-1; assay: WST-1 cytotoxicity assay, JSC-1 (KSHV+ PEL); type: cell-based; details: 72 h
Text: as §1, §2, §3

[5] = system: HUVEC; assay: WST-1 cytotoxicity on primary cells HUVEC; type: cell-based, human
Protocol: as §3
Supplementary file ppat.1011089.s006.tif: S5 Fig Cytotoxicity of tested compounds on HUVEC. The primary cells HUVEC were treated with indicated concentrations of compounds for 72 h, then cell viability was assessed using the WST-1 assay. The CC50 for each compound was calculated from the dose-response curves using Graphpad Prism 5.0 software. Data was normalized as the fold change compared to the DMSO control. (TIF) Click here for additional data file.

[6] = Pharmacokinetics in plasma of mice (LC-MS/MS); details: male, NOD/SCID, mouse, in vivo
Protocol: The i.p. and p.o. dose were formulated with DMSO/PEG300/Tween80/saline (5/30/10/55). Samples were obtained at 0.25, 0.5, 1, 2, 4, and 8 hours post dosing via tail snipping, transferred into plastic microcentrifuge tubes containing 4 μL of K2-EDTA (0.5 M) as anti-coagulant and placed on wet ice until centrifugation. Harvested blood samples were centrifuged shortly after collection at 4,000 g 4°C for 10 minutes. After centrifugation, the amount of compounds in the plasma was determined using HPLC-coupled tandem mass spectrometry (LC-MS/MS). Values are calculated from arithmetic mean plasma concentrations (n = 3 mice per condition). AUClast and t1/2 were determined using GraphPad Prism v5.0. The bioavailability F (%) = AUClast for p.o. / AUClast for i.p. × 100 [50].

[7] = system: BRD4; assay: BRD4 signaling by Western blot (c-Myc expression); type: cell-based
[8] = system: BCBL-1 cells; assay: Cell death regulatory proteins by Western blot; type: cell-based; details: 50 nM, 48 h
[9] = read-out: KSHV-infected lymphomas CC50, BCBL-1
[10] = read-out: KSHV-infected lymphomas CC50, BC-1
[11] = read-out: KSHV-infected lymphomas CC50, BCP-1
[12] = read-out: KSHV-infected lymphomas CC50, JSC-1
[13] = ip, mice, single i.p. 50 mg/kg, plasma, read-out: AUClast
[14] = ip, mice, single i.p. 50 mg/kg, plasma, read-out: Cmax
[15] = ip, mice, single i.p. 50 mg/kg, plasma, read-out: Tmax
[16] = ip, mice, single i.p. 50 mg/kg, plasma, read-out: t1/2 (converted)
[17] = BCBL-1 cells, 48 h, Western blot

| Compound | CC50 [1, 9] [nM] | CC50 [2, 10] [nM] | CC50 [3, 11] [nM] | CC50 [4, 12] [nM] | Cytotoxicity in primary cells HUVEC ([5]; 72 h, WST-1) | AUC(0-t) [6, 13] [ng·h/mL] | Cmax [6, 14] [ng/mL] | Tmax [6, 15] [h] | half-life [6, 16] [h] | Expression of p-RB, cleaved-caspase 3 and cleaved-PARP [8] | c-Myc expression [7, 17] | other results |
| --- | --- | --- | --- | --- | --- | --- | --- | --- | --- | --- | --- | --- |
| Cc1sc2c(c1C)C(c1ccc(Cl)cc1)=N[C@@H](CC(=O)OC(C)(C)C)c1nnc(C)n1-2 [(+)-JQ1, reference compound] | 18 | 44 | 59 | 41 | moderate cytotoxicity | 78000 | 28700 | 1 | 2.27 | almost unchanged | – | c-Myc expression [7]: drastically downregulated |
| O=C(CCCCCCC(=O)Nc1ccccc1)NO [SAHA, suberoylanilide hydroxamic acid, reference compound] | 41 | 1380 | 1420 | 680 | moderate cytotoxicity | 12000 | 16600 | 0.25 | 0.72 | almost unchanged | subtle effect | – |
| Cc1sc2c(c1C)C(c1ccc(Cl)cc1)=N[C@@H](CC(=O)O[C@H](C)c1ccc(C(=O)Nc3ccccc3N)cc1)c1nnc(C)n1-2 [009P1, (R)-1-(4-((2-aminophenyl)carbamoyl)phenyl)ethyl 2-((S)-4-(4-chlorophenyl)-2,3,9-trimethyl-6H-thieno[3,2-f][1,2,4]triazolo[4,3-a][1,4]diazepin-6-yl)acetate] | – | – | – | – | – | – | – | – | – | strongly affected | decreased | CC50 ([1]; read-out: CC50, BCBL-1): 16 nM; CC50 ([2]; read-out: CC50, BC-1): 42 nM; CC50 ([3]; read-out: CC50, BCP-1): 120 nM; CC50 ([4]; read-out: CC50, JSC-1): 300 nM; Cytotoxicity in primary cells HUVEC [5]: much less cytotoxicity; bioavailability ([6]; 50 mg/kg): 24.5%; AUC(0-t) ([6]; ip, 50 mg/kg): 159000 ng·h/mL; Cmax ([6]; ip, 50 mg/kg): 74600 ng/mL; Tmax ([6]; ip, 50 mg/kg): 1 h; half-life ([6]; ip, 50 mg/kg): 1.66 h; AUC(0-t) ([6]; po, 50 mg/kg): 39000 ng·h/mL; Cmax ([6]; po, 50 mg/kg): 11500 ng/mL; Tmax ([6]; po, 50 mg/kg): 0.5 h; half-life ([6]; po, 50 mg/kg): 1.12 h |
